One assay has as its target Carbonic anhydrase 9 (Homo sapiens, UniProt Q16790).
The next assay has as its target Carbonic anhydrase 2 (Homo sapiens, UniProt P00918). In words: Inhibition of human CA2 preincubated for 15 mins by stopped-flow carbon dioxide hydration assay.

Description for Carbonic anhydrase 9: Inhibition of human CA9 preincubated for 15 mins by stopped-flow carbon dioxide hydration assay

One may read the Ki as the dissociation constant of the complex between target and ligand, obtained from inhibition or displacement. High values mean lower affinity, low ones higher affinity. In the case of `NS(=O)(=O)c1ccc(C(=O)N2CCN(C(=O)c3cccc(Br)c3)CC2)cc1`, the Ki at Carbonic anhydrase 9 turned out to be 16.2 nM; on Carbonic anhydrase 2 it was 0.6 nM.

For `NS(=O)(=O)c1ccc(C(=O)N2CCN(C(=O)c3ccc(F)cc3)CC2)cc1`, the inhibitory constant (Ki) on Carbonic anhydrase 9 worked out at 332 nM; at Carbonic anhydrase 2, 32.4 nM.

Compound `NS(=O)(=O)c1ccc(C(=O)N2CCN(C(=O)c3ccccc3)CC2)cc1` yielded a Ki at Carbonic anhydrase 9 of 37.1 nM.

On to `NS(=O)(=O)c1ccc(C(=O)N2CCN(C(=O)c3ccc([N+](=O)[O-])cc3)CC2)cc1`, for which the figures for the Ki on Carbonic anhydrase 9 and at Carbonic anhydrase 2 were 11.2 nM and 23.9 nM, respectively.

The compound `NS(=O)(=O)c1ccc(C(=O)N2CCN(C(=O)c3ccccc3Cl)CC2)cc1` displayed a Ki at Carbonic anhydrase 9 of 62.2 nM.

`NS(=O)(=O)c1ccc(C(=O)N2CCN(C(=O)c3cccc(F)c3)CC2)cc1`: the results for the Ki at Carbonic anhydrase 9 and at Carbonic anhydrase 2 were 3.8 nM and 0.41 nM, respectively.

In the case of `NS(=O)(=O)c1ccc(C(=O)N2CCN(C(=O)c3cccc([N+](=O)[O-])c3)CC2)cc1`, the results for the Ki at Carbonic anhydrase 9 and on Carbonic anhydrase 2 were 2.2 nM and 28.6 nM, respectively.

As for `NS(=O)(=O)c1ccc(C(=O)N2CCN(C(=O)c3ccccc3F)CC2)cc1`, the Ki came to 68.7 nM on Carbonic anhydrase 9 and 28.4 nM at Carbonic anhydrase 2.

As for `NS(=O)(=O)c1ccc(C(=O)N2CCN(C(=O)c3ccccc3Br)CC2)cc1`, the Ki on Carbonic anhydrase 9 stood at 60.4 nM; at Carbonic anhydrase 2, 3 nM.

Regarding `NS(=O)(=O)c1ccc(C(=O)N2CCN(C(=O)c3ccc(Br)cc3)CC2)cc1`, the Ki amounted to 8 nM on Carbonic anhydrase 9 and 4.4 nM on Carbonic anhydrase 2.

Take `COc1cccc(C(=O)N2CCN(C(=O)c3ccc(S(N)(=O)=O)cc3)CC2)c1`: the Ki was 360 nM at Carbonic anhydrase 9 and 36.3 nM on Carbonic anhydrase 2.

With `NS(=O)(=O)c1ccc(C(=O)N2CCN(C(=O)c3cccc(Cl)c3)CC2)cc1`, the values for the Ki at Carbonic anhydrase 9 and on Carbonic anhydrase 2 were 54.4 nM and 22.5 nM, respectively.

As to `NS(=O)(=O)c1ccc(C(=O)N2CCN(C(=O)c3ccc(Cl)cc3)CC2)cc1`, the Ki was determined as 29.2 nM at Carbonic anhydrase 9 and 7.2 nM at Carbonic anhydrase 2.

For the compound `Nc1cccc(C(=O)N2CCN(C(=O)c3ccc(S(N)(=O)=O)cc3)CC2)c1`, the results for the Ki at Carbonic anhydrase 9 and on Carbonic anhydrase 2 were 15.2 nM and 51.1 nM, respectively.

Consider `COc1ccccc1C(=O)N1CCN(C(=O)c2ccc(S(N)(=O)=O)cc2)CC1`, for which the Ki on Carbonic anhydrase 9 stood at 250 nM; on Carbonic anhydrase 2, 19.8 nM.

With `Nc1ccccc1C(=O)N1CCN(C(=O)c2ccc(S(N)(=O)=O)cc2)CC1`, the values for the inhibition constant Ki at Carbonic anhydrase 9 and at Carbonic anhydrase 2 were 19.1 nM and 4.1 nM, respectively.

For the compound `NS(=O)(=O)c1ccc(C(=O)N2CCN(C(=O)c3ccccc3[N+](=O)[O-])CC2)cc1`, the Ki at Carbonic anhydrase 9 came out at 9.8 nM; on Carbonic anhydrase 2, 42.4 nM.

As to `Nc1ccc(C(=O)N2CCN(C(=O)c3ccc(S(N)(=O)=O)cc3)CC2)cc1`, the Ki at Carbonic anhydrase 9 was determined as 14.3 nM; on Carbonic anhydrase 2 it was 78.8 nM.
